Paper PMC6934184, “Selective DNA-PKcs inhibition extends the therapeutic index of localized radiotherapy and chemotherapy” (The Journal of Clinical Investigation, 2019)

Target: T1, TEK (Tie2) (Homo sapiens, UniProt Q02763)
T1 construct: purchased Thermo Fisher Scientific (Life Technologies) SelectScreen
Experiment: SelectScreen Z'LYTE
Assay type: biochemical
Procedure, shortened: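 SelectScreen broad panel; activity (Z'LYTE, Adapta) plus binding formats. ATP: Km app for CSF1R Z'LYTE; 10 for CAMK1 Adapta. Readout = % per kinase.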

T1 sequence (Q02763 23-1124): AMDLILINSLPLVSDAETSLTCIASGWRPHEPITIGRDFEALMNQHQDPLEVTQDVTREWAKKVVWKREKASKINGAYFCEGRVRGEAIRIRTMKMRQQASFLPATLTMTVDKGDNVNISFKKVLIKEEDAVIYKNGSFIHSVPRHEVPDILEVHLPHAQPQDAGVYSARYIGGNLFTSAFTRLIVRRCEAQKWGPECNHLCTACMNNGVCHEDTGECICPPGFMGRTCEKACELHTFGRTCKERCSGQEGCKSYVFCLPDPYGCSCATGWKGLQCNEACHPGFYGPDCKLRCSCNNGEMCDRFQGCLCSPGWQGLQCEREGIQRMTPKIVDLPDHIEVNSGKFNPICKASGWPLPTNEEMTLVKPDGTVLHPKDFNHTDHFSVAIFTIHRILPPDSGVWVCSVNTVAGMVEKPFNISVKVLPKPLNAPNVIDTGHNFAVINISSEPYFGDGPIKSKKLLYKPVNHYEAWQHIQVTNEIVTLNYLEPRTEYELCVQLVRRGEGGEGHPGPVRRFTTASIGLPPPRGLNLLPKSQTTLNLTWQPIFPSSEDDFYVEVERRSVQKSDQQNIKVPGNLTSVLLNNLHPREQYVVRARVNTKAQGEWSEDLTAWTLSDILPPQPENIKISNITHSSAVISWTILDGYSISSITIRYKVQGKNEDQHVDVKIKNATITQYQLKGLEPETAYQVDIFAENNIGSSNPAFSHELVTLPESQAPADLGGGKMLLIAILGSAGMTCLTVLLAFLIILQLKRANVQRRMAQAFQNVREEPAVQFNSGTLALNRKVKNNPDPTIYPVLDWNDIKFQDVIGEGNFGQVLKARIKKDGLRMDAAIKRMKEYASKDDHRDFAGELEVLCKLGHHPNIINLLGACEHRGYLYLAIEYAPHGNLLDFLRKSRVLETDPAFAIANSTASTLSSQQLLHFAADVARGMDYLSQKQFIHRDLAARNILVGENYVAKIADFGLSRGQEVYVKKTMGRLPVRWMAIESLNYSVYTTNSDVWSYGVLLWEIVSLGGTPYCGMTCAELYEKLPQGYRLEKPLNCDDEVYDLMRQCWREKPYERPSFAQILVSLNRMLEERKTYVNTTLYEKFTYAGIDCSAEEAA

Compound: CN(C(=O)CN1CCOCC1)c1ccc2sc3c(-c4cccc5c(=O)cc(N6CC7CCC(C6)O7)oc45)cccc3c2c1 [NU5455]
- inhibition at 1 µM: -0.1%
